Data taken from ChEMBL document CHEMBL1149655, “Non-steroidal glucocorticoid agonists: the discovery of aryl pyrazoles as A-ring mimetics” (Bioorg Med Chem Lett, 2007).
Values joined by “and” are separate entries in the source; they are usually repeats but may differ in a detail not shown here. Equal entries are not always repeated.

The compounds below were run against T1, Glucocorticoid receptor (Homo sapiens, UniProt P04150).
T1 sequence (P04150 whole entry): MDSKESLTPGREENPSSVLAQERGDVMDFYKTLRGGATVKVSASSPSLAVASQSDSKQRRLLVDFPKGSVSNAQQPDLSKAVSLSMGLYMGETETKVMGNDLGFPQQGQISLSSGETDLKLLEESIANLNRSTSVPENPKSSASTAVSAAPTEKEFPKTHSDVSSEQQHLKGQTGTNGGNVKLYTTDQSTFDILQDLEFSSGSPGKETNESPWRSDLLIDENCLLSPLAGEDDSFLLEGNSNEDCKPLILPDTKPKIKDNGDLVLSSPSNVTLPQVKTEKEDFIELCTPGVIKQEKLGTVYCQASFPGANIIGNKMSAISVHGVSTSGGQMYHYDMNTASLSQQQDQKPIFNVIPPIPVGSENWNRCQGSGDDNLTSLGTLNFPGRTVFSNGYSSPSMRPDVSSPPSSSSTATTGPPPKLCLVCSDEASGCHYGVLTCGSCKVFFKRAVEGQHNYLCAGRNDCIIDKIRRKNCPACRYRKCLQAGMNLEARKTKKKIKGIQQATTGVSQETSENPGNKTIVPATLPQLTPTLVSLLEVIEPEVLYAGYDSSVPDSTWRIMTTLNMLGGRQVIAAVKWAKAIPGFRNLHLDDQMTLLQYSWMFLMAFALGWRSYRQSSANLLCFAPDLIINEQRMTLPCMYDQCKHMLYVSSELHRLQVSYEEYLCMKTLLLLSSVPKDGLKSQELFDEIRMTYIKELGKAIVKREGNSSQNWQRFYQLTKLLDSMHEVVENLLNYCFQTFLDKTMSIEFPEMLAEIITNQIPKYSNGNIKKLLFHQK
Description: Agonist activity at glucocorticoid receptor in human A549 cells by NF-kappaB transrepression assay

IC50 | SMILES
0.00646 µM | CCC1(CC(O)(CNC(=O)c2cnn(-c3ccc(F)cc3F)c2N)C(F)(F)F)CCCc2ccccc21 (stereo in doubt; 22D1E1)
0.00447 µM | CCC1(CC(O)(CNC(=O)c2cnn(-c3ccc(F)cc3F)c2N)C(F)(F)F)CCCc2ccccc21 (stereo in doubt; 22D1E2)
0.00851 µM | Nc1c(C(=O)NCC(O)(CC2(C3CCCC3)CCCc3ccccc32)C(F)(F)F)cnn1-c1ccc(F)cc1F (stereo in doubt; 23D1E1)
0.0302 µM | Nc1c(C(=O)NCC(O)(CC2(C3CCCC3)CCCc3ccccc32)C(F)(F)F)cnn1-c1ccc(F)cc1F (stereo in doubt; 23D1E2)
0.00372 µM | Nc1c(C(=O)NCC(O)(CC2(c3cc(F)ccc3Cl)CCC2)C(F)(F)F)cnn1-c1ccccc1 (stereo in doubt; 24E1)
0.0132 µM | Nc1c(C(=O)NCC(O)(CC2(c3cc(F)ccc3Cl)CCC2)C(F)(F)F)cnn1-c1ccccc1 (stereo in doubt; 24E2)

Biological target: T1, Glucocorticoid receptor
Remark: another data set of the same source
Description: (§1) Binding affinity to glucocorticoid receptor

SMILES | IC50
COc1ccc(F)cc1C(C)(C)C[C@](O)(CNC(=O)c1cnn(-c2ccc(F)cc2)c1N)C(F)(F)F | 0.00676 µM and 0.0055 µM
Cc1c(S(=O)(=O)NCC(O)(CC2(C)CCCc3ccccc32)C(F)(F)F)cnn1-c1ccccc1 (stereo in doubt; 17D1) | 0.158 µM
CCC1(CC(O)(CNC(=O)c2cnn(-c3ccc(F)cc3F)c2N)C(F)(F)F)CCCc2ccccc21 (stereo in doubt; 22D1E2) | 0.00468 µM
Nc1c(C(=O)NCC(O)(CC2(C3CCCC3)CCCc3ccccc32)C(F)(F)F)cnn1-c1ccc(F)cc1F (stereo in doubt; 23D1E1) | 0.00955 µM
Nc1c(C(=O)NCC(O)(CC2(C3CCCC3)CCCc3ccccc32)C(F)(F)F)cnn1-c1ccc(F)cc1F (stereo in doubt; 23D1E2) | 0.0209 µM
Nc1c(C(=O)NCC(O)(CC2(c3cc(F)ccc3Cl)CCC2)C(F)(F)F)cnn1-c1ccccc1 (stereo in doubt; 24E1) | 0.00427 µM
Nc1c(C(=O)NCC(O)(CC2(c3cc(F)ccc3Cl)CCC2)C(F)(F)F)cnn1-c1ccccc1 (stereo in doubt; 24E2) | 0.00479 µM

More lines, now with the values ahead:

IC50 | SMILES
0.0347 µM | Cc1c(S(=O)(=O)NCC(O)(CC2(C)CCCc3ccccc32)C(F)(F)F)cnn1-c1ccccc1 (stereo in doubt; 17D2)
0.0513 µM | Cc1c(S(=O)(=O)NCC(O)(CC2(C)CCCc3ccccc32)C(F)(F)F)cnn1-c1ccccc1 (stereo in doubt; 17D2E1)

Biological target: T1, Glucocorticoid receptor
Remark: another data set of the same source

IC50 | SMILES
> 1 µM | COc1ccc(F)cc1C(C)(C)C[C@](O)(CNC(=O)c1cnn(-c2ccc(F)cc2)c1N)C(F)(F)F
> 1 µM | CCC1(CC(O)(CNC(=O)c2cnn(-c3ccc(F)cc3F)c2N)C(F)(F)F)CCCc2ccccc21 (stereo in doubt; 22D1E1)
0.275 µM | Nc1c(C(=O)NCC(O)(CC2(C3CCCC3)CCCc3ccccc32)C(F)(F)F)cnn1-c1ccc(F)cc1F (stereo in doubt; 23D1E1)

Biological target: T1, Glucocorticoid receptor
Remark: another data set of the same source
Description: as §1

Log IC50 | SMILES
-8.33 | CCC1(CC(O)(CNC(=O)c2cnn(-c3ccc(F)cc3F)c2N)C(F)(F)F)CCCc2ccccc21 (stereo in doubt; 22D1E1)

These compounds were tested against T2, Progesterone receptor (Homo sapiens, UniProt P06401) (assay: Binding affinity to progesterone receptor).
T2 sequence (P06401 whole entry): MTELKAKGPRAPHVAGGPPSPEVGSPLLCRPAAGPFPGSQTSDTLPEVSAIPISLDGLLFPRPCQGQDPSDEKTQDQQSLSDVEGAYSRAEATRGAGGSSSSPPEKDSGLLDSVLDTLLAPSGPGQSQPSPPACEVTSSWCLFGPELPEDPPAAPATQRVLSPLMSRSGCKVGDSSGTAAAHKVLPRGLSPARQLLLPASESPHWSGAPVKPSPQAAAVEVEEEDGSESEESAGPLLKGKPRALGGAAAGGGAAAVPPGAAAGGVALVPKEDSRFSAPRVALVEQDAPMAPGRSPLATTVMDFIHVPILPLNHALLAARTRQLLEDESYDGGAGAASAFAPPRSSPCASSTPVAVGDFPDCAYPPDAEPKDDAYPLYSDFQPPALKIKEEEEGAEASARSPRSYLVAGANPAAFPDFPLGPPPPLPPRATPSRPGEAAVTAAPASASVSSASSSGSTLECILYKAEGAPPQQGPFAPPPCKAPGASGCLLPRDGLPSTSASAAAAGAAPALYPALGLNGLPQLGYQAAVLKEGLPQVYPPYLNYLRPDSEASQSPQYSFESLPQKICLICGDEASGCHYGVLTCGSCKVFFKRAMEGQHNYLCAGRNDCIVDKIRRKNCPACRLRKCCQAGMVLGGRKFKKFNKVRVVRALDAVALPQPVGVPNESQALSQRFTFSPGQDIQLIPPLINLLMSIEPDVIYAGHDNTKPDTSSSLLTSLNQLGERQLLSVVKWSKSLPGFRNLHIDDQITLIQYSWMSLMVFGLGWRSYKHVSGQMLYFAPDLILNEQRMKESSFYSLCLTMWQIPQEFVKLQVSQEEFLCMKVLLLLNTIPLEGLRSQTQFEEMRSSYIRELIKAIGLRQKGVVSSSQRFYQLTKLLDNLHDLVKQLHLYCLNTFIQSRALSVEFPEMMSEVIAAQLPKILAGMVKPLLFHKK

IC50 | SMILES
> 1 µM | COc1ccc(F)cc1C(C)(C)C[C@](O)(CNC(=O)c1cnn(-c2ccc(F)cc2)c1N)C(F)(F)F
> 1 µM | Nc1c(C(=O)NCC(O)(CC2(c3cc(F)ccc3Cl)CCC2)C(F)(F)F)cnn1-c1ccccc1 (stereo in doubt; 24E1)

What follows are compounds tested against T1, Glucocorticoid receptor (assay: Agonist activity at glucocorticoid receptor in human A549 cells by MMTV transactivation assay).
Assay type: functional, cell-based

EC50 | SMILES
0.0145 µM | CCC1(CC(O)(CNC(=O)c2cnn(-c3ccc(F)cc3F)c2N)C(F)(F)F)CCCc2ccccc21 (stereo in doubt; 22D1E1)
0.0123 µM | CCC1(CC(O)(CNC(=O)c2cnn(-c3ccc(F)cc3F)c2N)C(F)(F)F)CCCc2ccccc21 (stereo in doubt; 22D1E2)
0.0955 µM | Nc1c(C(=O)NCC(O)(CC2(C3CCCC3)CCCc3ccccc32)C(F)(F)F)cnn1-c1ccc(F)cc1F (stereo in doubt; 23D1E1)
0.151 µM | Nc1c(C(=O)NCC(O)(CC2(C3CCCC3)CCCc3ccccc32)C(F)(F)F)cnn1-c1ccc(F)cc1F (stereo in doubt; 23D1E2)
0.0151 µM | Nc1c(C(=O)NCC(O)(CC2(c3cc(F)ccc3Cl)CCC2)C(F)(F)F)cnn1-c1ccccc1 (stereo in doubt; 24E1)
0.0174 µM | Nc1c(C(=O)NCC(O)(CC2(c3cc(F)ccc3Cl)CCC2)C(F)(F)F)cnn1-c1ccccc1 (stereo in doubt; 24E2)

These compounds were tested against T3, Androgen receptor (Homo sapiens, UniProt P10275) (assay: Binding affinity to androgen receptor).
T3 sequence (P10275 whole entry): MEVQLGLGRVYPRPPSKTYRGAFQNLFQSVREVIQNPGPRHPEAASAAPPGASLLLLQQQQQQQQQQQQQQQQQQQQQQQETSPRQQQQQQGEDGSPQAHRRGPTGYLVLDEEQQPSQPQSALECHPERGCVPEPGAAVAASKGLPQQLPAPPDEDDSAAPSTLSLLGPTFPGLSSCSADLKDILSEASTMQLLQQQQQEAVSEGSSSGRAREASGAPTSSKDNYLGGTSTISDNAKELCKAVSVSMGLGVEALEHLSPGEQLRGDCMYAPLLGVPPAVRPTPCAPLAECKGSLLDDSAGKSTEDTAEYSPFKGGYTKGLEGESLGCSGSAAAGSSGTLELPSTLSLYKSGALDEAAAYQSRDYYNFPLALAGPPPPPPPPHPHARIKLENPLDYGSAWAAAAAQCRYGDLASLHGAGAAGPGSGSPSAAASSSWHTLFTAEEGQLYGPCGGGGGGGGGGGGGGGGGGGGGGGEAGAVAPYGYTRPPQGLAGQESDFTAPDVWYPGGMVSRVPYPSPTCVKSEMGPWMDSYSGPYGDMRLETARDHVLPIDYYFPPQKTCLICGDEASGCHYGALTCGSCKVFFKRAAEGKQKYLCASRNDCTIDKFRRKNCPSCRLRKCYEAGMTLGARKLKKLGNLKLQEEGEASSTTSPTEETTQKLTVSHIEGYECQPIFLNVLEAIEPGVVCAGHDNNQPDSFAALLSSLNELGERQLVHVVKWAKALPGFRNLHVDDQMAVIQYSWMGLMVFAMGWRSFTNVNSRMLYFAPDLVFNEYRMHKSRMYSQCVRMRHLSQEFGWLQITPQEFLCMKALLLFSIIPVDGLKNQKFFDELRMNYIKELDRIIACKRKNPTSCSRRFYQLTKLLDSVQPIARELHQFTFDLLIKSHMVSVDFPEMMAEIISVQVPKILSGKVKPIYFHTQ

IC50 | SMILES
> 1 µM | COc1ccc(F)cc1C(C)(C)C[C@](O)(CNC(=O)c1cnn(-c2ccc(F)cc2)c1N)C(F)(F)F
> 1 µM | Nc1c(C(=O)NCC(O)(CC2(c3cc(F)ccc3Cl)CCC2)C(F)(F)F)cnn1-c1ccccc1 (stereo in doubt; 24E1)
